# US20040224878A1, “Fertilization of aged oocytes” (priority 2000, published 2004)
# Key:
# [1] = test system: mouse cumulus-oocyte complex (COC); conditions: addition to the culture medium of mouse COC; cited from earlier work
# [2] = test system: aged metaphase 11 oocytes; test: Cytogenetic analysis (chromosome count, hyperploidy) of cultured oocytes; format: cell-based, CBA/Ca mouse; conditions: 10 μM FF-MAS given alone or in combination with Hx, 22 hours culture, FIG. 2
# Protocol: The CBA/Ca mouse provides a model system for studies on the maternal age effect of oocytes (7). This model is characterised by its relatively limited pool of follicles with low number of aged oocytes in the sexually mature adult female, similar to the human. All the following studies were carried out in the CBA/Ca mice. Animals were kept under controlled lighting and temperature. Oocytes from young (5-6 weeks old) and aged (35-38 week old) CBA/Ca mice in the diestrus stage of the cycle were investigated. Oocytes were isolated in Hx-medium (see below) under a stereo microscope by manual rupture of the follicles using a pair of 27 gauge needles. Spherical, naked oocytes (NO) displaying an intact germinal vesicle (GV) were placed in a-minimum essential medium (x-MEM without ribonucleosides, Gibco BRL, Cat. No. 22561) supplemented with 3 mM hypoxanthine (Sigma Cat. No. H-9377), 8 mg/ml Human Serum Albumin (HSA, State Serum Institute, Denmark), 0.23 mM pyruvate (Sigma, Cat. No. S-8636), 2 mM glutamine (Flow Cat. No. 16-801), 100 IU/ml penicillin and 100 μg/ml streptomycin (Flow, Cat No. 16-700). This medium was designated Hx-medium. […] The number of chromosomes was counted in each oocyte. […]
# aged oocytes = test: Cell cycle progression (GV, GVBD, PB) of young and aged oocytes after 22 h culture; format: cell-based, CBA/Ca mouse; conditions: 10 μM FF-MAS in Hx-medium, aged (35-38 week old) vs young (5-6 weeks old) oocytes, FIG. 1
# Protocol: The CBA/Ca mouse provides a model system for studies on the maternal age effect of oocytes (7). This model is characterised by its relatively limited pool of follicles with low number of aged oocytes in the sexually mature adult female, similar to the human. All the following studies were carried out in the CBA/Ca mice. Animals were kept under controlled lighting and temperature.
# Oocytes from young (5-6 weeks old) and aged (35-38 week old) CBA/Ca mice in the diestrus stage of the cycle were investigated. Oocytes were isolated in Hx-medium (see below) under a stereo microscope by manual rupture of the follicles using a pair of 27 gauge needles. […]
# (a) By the end of the culture period cell cycle progression was analysed by counting the number of oocytes with germinal vesicle (GV) or germinal vesicle breakdown (GVB) and those with polar body (PB) by using a stereo microscope or an inverted microscope with differential interference contrast equipment. The percentage of oocytes with GV, GVBD and PB per total number of oocytes, respectively, was calculated in the 4 treatment groups of young and aged oocytes, respectively.
# oocytes = conditions: mouse; cited from earlier work
# human oocytes = conditions: concentrations around those observed in vivo, culture medium of human oocytes during IVF; cited from earlier work
compound,measurement,setting,value
Cl.Cl.Clc1ccccc1CNCC1CCC(CNCc2ccccc2Cl)CC1 (centres unmarked) [AY9944],accumulation of FF-MAS,[1],has the capacity to induce accumulation of FF-MAS
"CC(C)=CCC[C@@H](C)[C@H]1CC=C2C3=C(CC[C@@]21C)[C@@]1(C)CC[C@H](O)C(C)(C)[C@@H]1CC3 [FF-MAS, 4,4-dimethyl-5α-cholesta-8,14,24-triene-31-ol]","numerical aberration rate, e.g. hyperploidy",[2],reduces numerical aberration rate
same,maturation to metaphase 11 (cell cycle progression),aged oocytes,more successful to mature to metaphase 11 than young oocytes
same,nuclear (meiotic) and cytoplasmic maturation,oocytes,induces nuclear (meiotic) and cytoplasmic maturation
"EGF: growth factor enhancing endogenous production of MAS in the cumulus enclosed oocyte (NSDSECPLSHDGYCLHDGVCMYIEALDKYACNCVVGYIGERCQYRDLKWWELR; UniProt P01133 971-1023, looked up)",implantation rates of the retrieved oocytes,human oocytes,significant improved implantation rates
